What was measured:
DRG neurons = assay: Calcium imaging from cultured DRG neurons; type: cell-based; conditions: wild-type mice DRG neurons
Method: DRGs from all spinal levels of 4-week old mice were collected in cold DH10 (90% DMEM/F-12, 10% FBS, 100 U/ml penicillin, and 100 μg/ml Streptomycin, Gibco) and treated with enzyme solution (5 mg/ml Dispase, 1 mg/ml Collagenase Type I in HPBS without Ca^++ and Mg^++, Gibco) at 37° C. Following trituration and centrifugation, cells were resuspended in DH10, plated on glass cover slips coated with poly-D-lysine (0.5 mg/ml, Stoughton, Mass.) and laminin (10 μg/ml, Invitrogen), cultured in an incubator ([…] and 5% CO2) at 37° C. and used within 24 hours. Neurons were loaded with Fura 2-acetomethoxy ester (Molecular Probes) for 30 min in the dark at room temperature. After washing, cells were imaged at 340 and 380 nm excitation to detect intracellular free calcium. To compare the response to histamine, chloroquine, and capsaicin between WT and Tlr3-deficient DRG neurons, calcium imaging assays were performed with an experimenter blind to genotype (n=3 per genotype), and the percentages of DRG neurons showing calcium responses were determined as we previously described (23).

TLR7 [1] = assay: Scratches after intradermal injection in the nape of the neck, WT and Tlr7-/- mice; type: in vivo; conditions: for dose response curve of scratching: intradermal injection, nape
From the text: We next evaluated whether TLR7 plays a role in itch sensation. We counted the number of scratches (bouts) by a hindpaw of mouse following intradermal injection of pruritogenic agents in the nape of the neck.

TLR7 [2] = target: T1, TLR7 (Mus musculus, UniProt P58681); assay: Cheek model of itch versus pain, TLR7 ligands; type: in vivo, mice; conditions: 20 μg intradermal into the cheek
T1 construct: We found functional TLR7 receptors in small-size DRG neurons; from tissue; host or cells: small DRG neurons of mice; nape and cheek skin of live mice (C57BL/6J background, CD1)
T1 sequence (P58681 27-1050): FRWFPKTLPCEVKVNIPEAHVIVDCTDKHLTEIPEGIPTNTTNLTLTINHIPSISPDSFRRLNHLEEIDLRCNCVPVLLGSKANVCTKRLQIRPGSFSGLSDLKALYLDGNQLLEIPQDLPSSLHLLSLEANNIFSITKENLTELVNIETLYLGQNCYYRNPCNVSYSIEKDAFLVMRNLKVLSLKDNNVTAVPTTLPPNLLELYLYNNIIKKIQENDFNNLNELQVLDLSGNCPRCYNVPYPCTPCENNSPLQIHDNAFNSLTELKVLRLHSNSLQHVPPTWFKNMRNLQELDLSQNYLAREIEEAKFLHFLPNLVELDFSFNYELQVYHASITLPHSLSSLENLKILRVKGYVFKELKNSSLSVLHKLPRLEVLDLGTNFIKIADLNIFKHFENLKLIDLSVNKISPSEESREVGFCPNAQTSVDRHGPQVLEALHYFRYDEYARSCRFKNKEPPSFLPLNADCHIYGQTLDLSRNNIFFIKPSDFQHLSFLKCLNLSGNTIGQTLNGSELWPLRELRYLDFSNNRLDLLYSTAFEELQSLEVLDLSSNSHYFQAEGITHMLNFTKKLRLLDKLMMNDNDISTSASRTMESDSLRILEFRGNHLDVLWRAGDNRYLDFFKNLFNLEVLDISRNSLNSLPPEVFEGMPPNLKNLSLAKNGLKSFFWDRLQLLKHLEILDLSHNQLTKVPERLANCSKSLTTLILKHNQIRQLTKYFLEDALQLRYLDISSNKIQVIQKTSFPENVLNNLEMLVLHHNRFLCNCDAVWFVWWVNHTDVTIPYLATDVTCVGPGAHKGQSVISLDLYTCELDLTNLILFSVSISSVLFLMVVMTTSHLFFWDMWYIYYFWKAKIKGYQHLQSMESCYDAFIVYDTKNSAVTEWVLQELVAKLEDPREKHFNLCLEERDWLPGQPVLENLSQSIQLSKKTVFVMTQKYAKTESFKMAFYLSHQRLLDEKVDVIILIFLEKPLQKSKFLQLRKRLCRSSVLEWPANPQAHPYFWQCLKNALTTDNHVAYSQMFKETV
Method: To distinguish itch and pain responses simultaneously, we used the cheek model by injection of chemical into cheek of mice (8). After brief anesthesia with isoflurane, we shaved mice on cheeks (approx. 5×8 mm area) two days before experiments. On the day of experiment, we injected 10 μl of reagent (50 μg compound 48/80 or 100 μg chloroquine) into the cheek and counted the number of wipes and the number of scratches for 30 min. We only counted those unilateral wipes with the forelimb that were not part of grooming behavior. One scratch was defined as a lifting of the hind paw toward the injection site on the cheek and then returning the paw to the floor or to the mouth.
To further investigate a unique role of TLR7 in itch versus pain, we used a recently developed “cheek model” of itch (Shimada, S. G. & LaMotte, R. H. Pain 139, 681-687 (2008)).

TRPV1 = TRPV1 (Mus musculus, UniProt Q704Y3); assay: Resiniferatoxin pretreatment: heat sensitivity, imiquimod-induced scratches, TLR7+ skin fibers; type: in vivo, mice; set-up: central terminals of TRPV1-expressing nociceptors; from tissue; host or cells: mouse lumbar spinal cord slices (L4-L5); live mice (intrathecal capsaicin, resiniferatoxin pretreatment)
From the text: C-fibers, express transient receptor potential subtype V1 (TRPV1) and are indispensable for itch sensation by various pruritogens (Imamachi, N. et al. Proc. Natl. Acad. Sci. U.S. A 106, 11330-11335 (2009)). […] Thus, TRPV1-expressing C-fibers but not TRPV1 per se are required for imiquimod-elicited itch. We also tested itch responses in mast cell-deficient SASH mice (Liu, Q. et al. Cell 139, 1353-1365 (2009)) and only found a moderate reduction (28%) in imiquimod-induced scratching (FIG. 12c).

Chain of TRPV1 (Q704Y3 whole entry): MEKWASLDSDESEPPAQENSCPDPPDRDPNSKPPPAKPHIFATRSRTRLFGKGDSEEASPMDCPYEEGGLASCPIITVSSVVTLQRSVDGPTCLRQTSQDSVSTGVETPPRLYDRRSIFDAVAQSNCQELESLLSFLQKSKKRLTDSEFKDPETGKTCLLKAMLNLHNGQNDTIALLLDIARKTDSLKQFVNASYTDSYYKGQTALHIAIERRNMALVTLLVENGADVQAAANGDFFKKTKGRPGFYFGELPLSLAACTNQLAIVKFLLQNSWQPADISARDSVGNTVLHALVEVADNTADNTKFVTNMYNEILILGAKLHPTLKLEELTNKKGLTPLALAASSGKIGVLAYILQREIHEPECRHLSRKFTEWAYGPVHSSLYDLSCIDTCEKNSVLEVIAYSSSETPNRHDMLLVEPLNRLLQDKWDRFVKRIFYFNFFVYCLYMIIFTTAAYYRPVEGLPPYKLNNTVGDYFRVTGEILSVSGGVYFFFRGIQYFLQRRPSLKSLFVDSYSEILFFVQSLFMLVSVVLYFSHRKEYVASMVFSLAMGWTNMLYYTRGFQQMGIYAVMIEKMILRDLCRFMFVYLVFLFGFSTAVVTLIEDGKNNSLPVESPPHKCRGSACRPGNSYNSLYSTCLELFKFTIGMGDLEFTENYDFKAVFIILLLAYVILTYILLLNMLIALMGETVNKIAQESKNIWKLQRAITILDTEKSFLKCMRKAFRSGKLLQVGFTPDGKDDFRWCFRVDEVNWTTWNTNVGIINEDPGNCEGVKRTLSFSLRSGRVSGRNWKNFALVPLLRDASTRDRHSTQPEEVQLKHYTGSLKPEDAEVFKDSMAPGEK

## CCN(CC)CCCC(C)Nc1ccnc2cc(Cl)ccc12 (centres unmarked) [chloroquine]
DRG neurons
  neurons with intracellular Ca2+ increases: 5%
TLR7 [1]; 600 μg
  TLR7 dependence of scratching at the highest dose: TLR7-independent
TLR7 [1]
  dose response curve of scratching: bell-shaped dose response curve

## C=CCn1c(=O)n([C@@H]2O[C@H](CO)[C@@H](O)[C@H]2O)c2nc(N)[nH]c(=O)c21 [loxoribine]
TLR7 [2]
  itch-like scratching in cheek model: elicited itch-like scratching
  pain-indicative wiping in cheek model: not pain-indicative wiping behavior
TLR7 [1]
  dose response curve of scratching: inverted-U-shaped dose response curve
TLR7 [1]; intradermal, 100 μg
  scratches in Tlr7-/- mice versus WT: reduced

## NCCc1c[nH]cn1 [histamine]
DRG neurons
  neurons with intracellular Ca2+ increases: 10%

## C=C(C)[C@]12C[C@@H](C)[C@@]34O[C@](Cc5ccccc5)(O[C@@H]1[C@@H]3C=C(COC(=O)Cc1ccc(O)c(OC)c1)C[C@]1(O)C(=O)C(C)=C[C@@H]41)O2 [RTX, resiniferatoxin]
TRPV1; RTX pretreatment
  heat sensitivity after pretreatment: loss of heat sensitivity
  imiquimod-induced scratches after pretreatment: almost abolished
TRPV1; RTX treatment
  TLR7+ fibers in the skin: ablated
